Test [1] has as its target T1, mKv1.3 channels stably expressed in mouse L929 fibroblasts (Mus musculus, UniProt P16390).
T1 construct: expressed in transfected cells
Nature of the test: Whole-cell patch-clamp electrophysiology on Kv1.3. To be noted: mKv1.3 in L929 fibroblasts, 200 ms pulses to 40 mV every 30 s, holding -80 mV, Hill fit, n = 3 to 6 cells per concentration. The test is classed as cell-based. The protocol:
Mouse fibroblasts stably expressing homotetramers of Kv1.1 or Kv1.3 were patch-clamped in the whole-cell configuration and steady-state block was measured after addition of different concentrations of the peptides.
(§1) Chips averaged 2–3.5 MΩ and a holding potential of −80 mV was used for all recordings. Series resistance compensation of 80% was used when currents exceeded 2 nA. The external solution was normal Ringer solution containing (in mM): 160 NaCl, 4.5 KCl, 2 CaCl2, 1 MgCl2, 10 Hepes, pH 7.4, 310 mOsm. The internal solution contained (in mM): 145 KF, 10 HEPES, 10 EGTA (ethylene glycol tetraacetic acid), 2 MgCl2, pH 7.2, 300 mOsm. Currents were elicited by repeated 200 ms pulses to 40 mV applied at intervals of 30 s for Kv1.3 and 10 s for Kv1.1. IC50 values were determined by fitting the Hill equation to the reduction of area under the current curve measured at 40 mV in the presence of different concentrations of the peptides (GraphPad Prism software, La Jolla, CA, USA).

Test [2] concerns the target T2, hKv1.6 (HEK cells transiently transfected with hKv1.6:eGFP) (Homo sapiens, UniProt P17658).
T2 construct: expressed in transfected cells; host or cells: HEK cells, transient, Lipofectamine 2000 (plasmid a gift from Dr. Heike Wulff)
As to the kind of experiment: Whole-cell patch-clamp electrophysiology on Kv1.6. Type of test: cell-based. The note with it: for block of Kv1.6 at 100 nM: HEK cells transiently transfected with hKv1.6:eGFP, patched 19 h after transfection, peptide 100 nM. The protocol:
The HEK cells were patched 19 h after transfection.
as §1

The target in test [3] is T3, Kv1.4 (mouse LTK fibroblasts stably transfected with Kv1.4) (Homo sapiens, UniProt P22459).
T3 construct: expressed in transfected cells
T3 sequence (P22459 whole entry): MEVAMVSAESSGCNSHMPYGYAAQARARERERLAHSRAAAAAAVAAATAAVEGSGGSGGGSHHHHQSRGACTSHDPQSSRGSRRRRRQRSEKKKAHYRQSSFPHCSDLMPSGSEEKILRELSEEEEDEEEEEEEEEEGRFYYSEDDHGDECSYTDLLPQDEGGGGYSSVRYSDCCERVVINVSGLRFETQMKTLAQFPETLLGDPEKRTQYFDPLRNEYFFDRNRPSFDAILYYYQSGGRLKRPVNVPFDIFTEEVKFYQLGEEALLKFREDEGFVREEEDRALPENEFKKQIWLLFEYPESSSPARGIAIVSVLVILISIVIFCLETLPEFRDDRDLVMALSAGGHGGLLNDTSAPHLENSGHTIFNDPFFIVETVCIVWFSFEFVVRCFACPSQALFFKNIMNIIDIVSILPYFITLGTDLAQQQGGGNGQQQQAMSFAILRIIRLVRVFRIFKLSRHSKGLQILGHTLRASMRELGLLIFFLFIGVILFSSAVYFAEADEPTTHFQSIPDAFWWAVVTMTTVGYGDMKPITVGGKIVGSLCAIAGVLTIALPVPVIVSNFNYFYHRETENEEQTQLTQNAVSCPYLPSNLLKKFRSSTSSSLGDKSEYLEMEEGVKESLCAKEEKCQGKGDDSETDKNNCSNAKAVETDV
Nature of the test: Whole-cell patch-clamp electrophysiology on Kv1.4. Type of test: cell-based. To be noted: for block of Kv1.4 at 100 nM: mouse LTK fibroblasts stably transfected with Kv1.4, peptide 100 nM.

Test [4] has as its system acute adoptive EAE, animal model of MS mediated by T lymphocytes. To be noted: cited from earlier work. From the text:
The Kv1.3 channel was discovered in the early 1980’s by the Chandy and Cahalan labs at the University of California Irvine and the Deutsch lab at the University of Pennsylvania. This K^+ channel, found in T lymphocytes, was the first to be described outside electrically excitable tissues. […] Kv1.3 in T lymphocytes is a voltage-gated homotetrameric membrane protein responsible for controlling the me ...

T2 sequence (P17658 whole entry): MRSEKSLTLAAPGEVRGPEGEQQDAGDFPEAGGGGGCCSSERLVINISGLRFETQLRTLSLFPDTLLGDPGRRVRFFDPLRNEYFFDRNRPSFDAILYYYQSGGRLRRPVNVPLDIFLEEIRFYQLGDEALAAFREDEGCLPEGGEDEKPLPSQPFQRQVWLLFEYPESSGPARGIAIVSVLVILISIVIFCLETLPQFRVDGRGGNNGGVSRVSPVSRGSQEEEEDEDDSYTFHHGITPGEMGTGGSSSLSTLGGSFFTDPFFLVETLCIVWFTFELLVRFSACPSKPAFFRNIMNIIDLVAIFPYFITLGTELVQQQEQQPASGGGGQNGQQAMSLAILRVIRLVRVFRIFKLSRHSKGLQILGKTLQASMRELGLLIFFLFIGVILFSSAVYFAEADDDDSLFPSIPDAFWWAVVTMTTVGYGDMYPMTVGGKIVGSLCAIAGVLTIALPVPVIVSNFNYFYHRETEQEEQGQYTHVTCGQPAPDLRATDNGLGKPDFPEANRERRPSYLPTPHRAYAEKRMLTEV
T1 sequence (P16390 whole entry): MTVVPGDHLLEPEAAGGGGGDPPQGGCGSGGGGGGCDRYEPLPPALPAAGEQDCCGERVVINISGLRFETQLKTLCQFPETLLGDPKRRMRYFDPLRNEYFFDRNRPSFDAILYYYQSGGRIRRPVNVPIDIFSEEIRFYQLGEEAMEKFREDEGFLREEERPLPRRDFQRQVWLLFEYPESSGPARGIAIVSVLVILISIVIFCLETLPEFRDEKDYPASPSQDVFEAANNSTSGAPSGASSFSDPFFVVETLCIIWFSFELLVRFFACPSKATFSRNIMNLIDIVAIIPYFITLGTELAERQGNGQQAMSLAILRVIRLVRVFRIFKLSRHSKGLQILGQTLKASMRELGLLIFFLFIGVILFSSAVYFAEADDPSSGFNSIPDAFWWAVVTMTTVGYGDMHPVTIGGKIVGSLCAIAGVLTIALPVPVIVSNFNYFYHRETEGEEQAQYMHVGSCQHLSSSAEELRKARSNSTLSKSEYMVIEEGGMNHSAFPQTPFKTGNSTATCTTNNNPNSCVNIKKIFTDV

As for `CC[C@H](C)[C@@H]1NC(=O)[C@@H](NC(=O)[C@H](CO)NC(=O)[C@@H](N)CCCNC(=N)N)CSSC[C@@H](C(=O)O)NC(=O)[C@H]([C@@H](C)O)NC(=O)CNC(=O)[C@@H]2CSSC[C@@H]3NC(=O)[C@H](CCC(N)=O)NC(=O)[C@H](Cc4ccccc4)NC(=O)[C@H](C)NC(=O)[C@H]([C@@H](C)O)NC(=O)[C@H](CSSC[C@H](NC(=O)[C@H](Cc4ccccc4)NC(=O)[C@H](CO)NC(=O)[C@H](CC(C)C)NC(=O)[C@H](CCCNC(=N)N)NC(=O)[C@H](Cc4ccc(O)cc4)NC(=O)[C@H](CCCCN)NC(=O)[C@H](CCSC)NC(=O)[C@H](CO)NC(=O)[C@H](Cc4cnc[nH]4)NC(=O)[C@H](CCCCN)NC3=O)C(=O)N[C@@H](CCCNC(=N)N)C(=O)N[C@@H](CCCCN)C(=O)N[C@@H]([C@@H](C)O)C(=O)N2)NC(=O)[C@H](CCCNC(=N)N)NC(=O)[C@H](CO)NC(=O)[C@H](CCCCN)NC(=O)[C@@H]2CCCN2C(=O)[C@H]([C@@H](C)CC)NC(=O)[C@H]([C@@H](C)O)NC(=O)[C@H](CC(=O)O)NC1=O` [ShK, reference compound], the IC50 in test [1] turned out to be 13.3 ± 1.4 pM; in test [2], 165000 ± 8000 pM; in test [3], 312 ± 14 pM.

With `CC[C@H](C)[C@@H]1NC(=O)[C@@H](NC(=O)[C@H](CO)NC(=O)[C@@H](N)CCCNC(=N)N)CSSC[C@@H](C(=O)N[C@@H](C)C(=O)O)NC(=O)[C@H]([C@@H](C)O)NC(=O)CNC(=O)[C@@H]2CSSC[C@@H]3NC(=O)[C@H](CCCCN)NC(=O)[C@H](Cc4ccccc4)NC(=O)[C@H](C)NC(=O)[C@H]([C@@H](C)O)NC(=O)[C@H](CSSC[C@H](NC(=O)[C@H](Cc4ccccc4)NC(=O)[C@H](CO)NC(=O)[C@H](CC(C)C)NC(=O)[C@H](CCCNC(=N)N)NC(=O)[C@H](Cc4ccc(O)cc4)NC(=O)[C@H](CCCCN)NC(=O)[C@H](CCSC)NC(=O)[C@H](CO)NC(=O)[C@H](Cc4c[nH]cn4)NC(=O)[C@H](CCCCN)NC3=O)C(=O)N[C@@H](CCCNC(=N)N)C(=O)N[C@@H](CCCCN)C(=O)N[C@@H]([C@@H](C)O)C(=O)N2)NC(=O)[C@H](CCCNC(=N)N)NC(=O)[C@H](CO)NC(=O)[C@H](CCCCN)NC(=O)[C@@H]2CCCN2C(=O)[C@H]([C@@H](C)CC)NC(=O)[C@H]([C@@H](C)O)NC(=O)[C@H](CC(=O)O)NC1=O` [ShK-234], the IC50 in test [1] turned out to be 37 ± 4.6 pM. For the same molecule, the “block of Kv1.6 at 100 nM” value in test [2] is approximately 25%. Moreover, in test [3], the “block of Kv1.4 at 100 nM” value is reported as less than 15% block at 100 nM.

Take `CC[C@H](C)[C@@H]1NC(=O)[C@H](CO)NC(=O)[C@H](Cc2c[nH]cn2)NC(=O)[C@H](CCCCN)NC(=O)[C@@H]2CSSC[C@@H]3NC(=O)[C@H]([C@@H](C)O)NC(=O)[C@H](CCCCN)NC(=O)[C@H](CCCNC(=N)N)NC(=O)[C@H](CSSC[C@H](NC(=O)[C@H](CCCNC(=N)N)NC(=O)[C@H](CO)NC(=O)[C@H](CCCCN)NC(=O)[C@@H]4CCCN4C(=O)[C@H]([C@@H](C)CC)NC(=O)[C@H]([C@@H](C)O)NC(=O)[C@H](CC(=O)O)NC(=O)[C@H]([C@@H](C)CC)NC(=O)[C@@H](NC(=O)[C@H](CO)NC(=O)[C@@H](N)CCCNC(=N)N)CSSC[C@@H](C(=O)N[C@@H](C)C(=O)O)NC(=O)[C@H]([C@@H](C)O)NC(=O)CNC3=O)C(=O)N[C@@H]([C@@H](C)O)C(=O)N[C@@H](C)C(=O)N[C@@H](Cc3ccccc3)C(=O)N[C@@H](CCCCN)C(=O)N2)NC(=O)[C@H](Cc2ccccc2)NC(=O)[C@H](CO)NC(=O)[C@H](CC(C)C)NC(=O)[C@H](CCCNC(=N)N)NC(=O)[C@H](Cc2ccc(O)cc2)NC(=O)[C@H](CCCCN)NC1=O` [ShK-235]: in test [1], it took 62 ± 13.2 pM to reach half-maximal inhibition (IC50). For the same molecule, the “block of Kv1.6 at 100 nM” value in test [2] is approximately 25%. For the same molecule, in test [3], the “block of Kv1.4 at 100 nM” value is recorded as less than 15% block at 100 nM.

On to kaliotoxin, for which, in test [4], the “effect on acute adoptive EAE” value is “ameliorate clinical signs”.

(Values after PMC4306950 (Marine Drugs, 2015).)
